The source of these data is US8003676B2, “1,3,4-oxadiazole derivatives as DGAT1 inhibitors” (AstraZeneca AB, priority 2006, dated 2011).

The target in one assay is T1, human DGAT1 (Homo sapiens, UniProt O75907).
T1 construct: made in house; host or cells: Sf9 insect cells (baculovirus), membrane fraction
T1 sequence (O75907 1-488): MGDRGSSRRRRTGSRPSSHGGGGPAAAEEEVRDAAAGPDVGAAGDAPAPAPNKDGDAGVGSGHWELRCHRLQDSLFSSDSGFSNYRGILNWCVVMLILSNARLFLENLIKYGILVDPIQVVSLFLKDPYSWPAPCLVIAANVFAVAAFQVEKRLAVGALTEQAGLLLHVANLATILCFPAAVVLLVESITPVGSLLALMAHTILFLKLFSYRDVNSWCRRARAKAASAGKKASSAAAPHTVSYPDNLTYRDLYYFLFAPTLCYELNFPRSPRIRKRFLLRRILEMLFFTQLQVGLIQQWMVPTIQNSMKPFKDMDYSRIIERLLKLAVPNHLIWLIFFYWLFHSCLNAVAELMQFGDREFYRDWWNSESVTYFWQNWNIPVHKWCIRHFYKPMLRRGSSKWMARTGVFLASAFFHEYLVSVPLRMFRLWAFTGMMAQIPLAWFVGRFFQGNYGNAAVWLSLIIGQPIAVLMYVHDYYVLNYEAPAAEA
Description: Human Enzyme Assay (DGAT1 inhibition, 14C oleoyl CoA, triolein formation). Type of assay: biochemical. The following applies: human DGAT1 expressed in sf9 insect cell membranes. The procedure: The in vitro assay to identify DGAT1 inhibitors uses human DGAT1 expressed in insect cell membranes as the enzyme source (Proc. Natl. Acad. Sci. 1998, 95, 13018-13023). Briefly, sf9 cells were infected with recombinant baculovirus containing human DGAT1 coding sequences and harvested after 48 h. Cells were lysed by sonication and membranes isolated by centrifuging at 28000 rpm for 1 h at 4° C. on a 41% sucrose gradient. The membrane fraction at the interphase was collected, washed, and stored in liquid nitrogen.
DGAT1 activity was assayed by a modification of the method described by Coleman (Methods in Enzymology 1992, 209, 98-102). Compound at 1-10 μM was incubated with 0.4 μg membrane protein, 5 mM MgCl2, and 100 μM1,2 dioleoyl-sn-glycerol in a total assay volume of 200 μl in plastic tubes. The reaction was started by adding ^14C oleoyl coenzyme A (30 μM final concentration) and incubated at room temperature for 30 minutes. The reaction was stopped by adding 1.5 mL 2-propanol:heptane:water (80:20:2). Radioactive triolein product was separated into the organic phase by adding 1 mL heptane and 0.5 mL 0.1 M carbonate buffer pH 9.5. DGAT1 activity was quantified by counting aliquots of the upper heptane layer by liquid scintillography.

The subject of the next assay is ACAT. Description: ACAT enzyme assay (esterification of cholesterol); selectivity DGAT over ACAT. The settings on record: DGAT vs ACAT enzyme assays. In kind it is biochemical. On the procedure:
• Mouse adipocyte 3T3 cells were cultured to confluency in 6 well plates in new born calf serum containing media. Differentiation of the cells was induced by incubating in medium containing 10% foetal calf serum, 1 μg/mL insulin, 0.25 μM dexamethasone and 0.5 mM isobutylmethyl xanthine. After 48 h the cells were maintained in medium containing 10% foetal calf serum and 1 μg/mL insulin for a further 4-6 days. For the experiment, the medium was changed to serum-free medium and the cells pre-incubated with compound solubilised in DMSO (final concentration 0.1%) for 30 minutes. De novo lipogenesis was measured by the addition of 0.25 mM sodium acetate plus 1 μCi/mL ^14C-sodium acetate to each well for a further 2 h (J. Biol. Chem., 1976, 251, 6462-6464). […] Incorporation of radiolabel into the triglyceride fraction was analysed using a Radiomatic Flo-one Detector (Packard) connected to the HPLC machine. […] De novo lipogenesis was measured by the addition of 50 μM sodium acetate plus 3 μCi/mL ^14C-sodium acetate to each well for a further 3 h (J. Biol. Chem., 1976, 251, 6462-6464). […] Incorporation of radiolabel into the triglyceride fraction was analysed using a Radiomatic Flo-one Detector (Packard) connected to the HPLC machine. • 3) The ability of compounds to inhibit ACAT can be measured using a modification of the enzyme assay described in Billheimer (1985) Methods in Enzymology, 111, 286-293. […]

For the compound `O=C(Nc1ccc(O[C@H]2CC[C@@H](C(=O)O)CC2)cc1F)c1nnc(Nc2cc(F)c(F)cc2F)o1` [Example 1, cis-4-(3-Fluoro-4-{[5-(2,4,5-trifluoro-phenylamino)-[1,3,4]oxadiazole-2-carbonyl]-amino}-phenoxy)-cyclohexanecarboxylic acid], the midpoint of inhibition at human DGAT1, the IC50, lay at 4 nM. For the same compound, the “selectivity to inhibit DGAT over inhibition of ACAT (ratio of IC50 values in the DGAT and ACAT enzyme assays)” value in the assay with ACAT was found to be 70 fold.
